Patent US7759510B2, “Platinum complexes and methods of use” (University of South Florida, priority 2003, dated 2010)
Where two headings read alike, the source gives them in different places.

Test system: A549 cells
Assay: MTT assay, percent survival of A549 cells
Type: cell-based
Protocol: 1. Prepare a suspension of A549 cells at 2×10^5 cells per mL in supplemented DMEM/F12 growth medium.
2. Plate 2×10^4 cells per well in a 96 well cell culture plate by adding 100 μL of stock suspension to each well.
3. For each platinum compound (already in solution), prepare a readily usable stock solution in DMEM/F12 medium.
4. For each compound generate triplicate trials of 0, 10, 20, 30, 40, 50, 60, and 70 μM concentration. This is achieved in situ by adding appropriate volumes of stock solution to each well along with the volume of untreated medium necessary to generate the desired concentration in a final volume of 200 μL.
5. Gently agitate plates to mix contents. Incubate at 37° C., 7% CO2 for 45 hours.
6. Add 20 μL of 5 mg/mL MTT solution (in PBS) to each well.
7. Gently agitate plates to mix contents and incubate an additional 3 hours to allow product development.
8. Remove plates from incubator and agitate to cause settling of formazan product.
9. Aspirate out liquid contents of each well using needle and syringe and discard.
10. Add 200 μL DMSO to each well to dissolve formazan product.
11. Agitate plates until all of the formazan product is in solution and no purple crystals remain on the bottom surface of the wells.
12. Read the absorbance of each well at […] using Varian software for Cary 50 UV-vis Spectrophotometer with fiber optic probe accessory.
(§1) MTT assays are used for the quantitative determination of cellular proliferation and activation and for the quantitation of in vitro tumor cell sensitivity to anti-cancer compounds. The assay is based on the cleavage of the yellow tetrazolium salt MTT into purple colored formazan by metabolically active cells. Solubilized formazan product can be photometrically quantitated using an ELISA plate reader. A decrease in the number of living cells results in a decrease in total metabolic activity which leads to a decrease in color formation. Platinum complexes of the present invention were tested in MTT assays using A549 cells to determine anti-cancer cell activity. […] FIGS. 1, 2, and 4 show percent survival versus platinum complex concentration in graphical form.
as §1, with “FIGS. 8, 9,” for “FIGS. 1, 2,”, “and 11” for “and 4”

Molecule: CO[C@H]1O[C@H](CO)[C@@H](O)[C@H](O)[C@@H]1O [Methyl alpha-D-Mannopyranoside]
- IC50 (Homo sapiens, Table 7, A549, linear trend from percent survival vs. concentration data, read-out: Calculated IC 50 (uM concentration)): 50.1 µM
- Average Absorbance (Table 6, A549, 10 μM): 2.4582
- Percent Survival (Table 6, A549, 10 μM): 104.1125%
- Average Absorbance (Table 6, A549, 20 μM): 2.4610
- Percent Survival (Table 6, A549, 20 μM): 104.2311%
- Average Absorbance (Table 6, A549, 30 μM): 2.1544
- Percent Survival (Table 6, A549, 30 μM): 91.2456%
- Average Absorbance (Table 6, A549, 40 μM): 1.1005
- Percent Survival (Table 6, A549, 40 μM): 46.6096%
- Average Absorbance (Table 6, A549, 50 μM): 0.6631
- Percent Survival (Table 6, A549, 50 μM): 28.0844%
- Average Absorbance (Table 6, A549, 60 μM): 0.9420
- Percent Survival (Table 6, A549, 60 μM): 39.8967%
- Average Absorbance (Table 6, A549, 70 μM): 0.8479
- Percent Survival (Table 6, A549, 70 μM): 35.9112%
- Average Absorbance (Table 8, A549, 10 μM): 2.6117
- Percent Survival (Table 8, A549, 10 μM): 106.9098%
- Average Absorbance (Table 8, A549, 20 μM): 2.4353
- Percent Survival (Table 8, A549, 20 μM): 99.6889%
- Average Absorbance (Table 8, A549, 30 μM): 1.7315
- Percent Survival (Table 8, A549, 30 μM): 70.8789%
- Average Absorbance (Table 8, A549, 40 μM): 0.6173
- Percent Survival (Table 8, A549, 40 μM): 25.2691%
- Average Absorbance (Table 8, A549, 50 μM): 0.4370
- Percent Survival (Table 8, A549, 50 μM): 17.8886%
- Average Absorbance (Table 8, A549, 60 μM): 0.5017
- Percent Survival (Table 8, A549, 60 μM): 20.5371%
- Average Absorbance (Table 8, A549, 70 μM): 0.5339
- Percent Survival (Table 8, A549, 70 μM): 21.8552%

Molecule: Caffeine
- Average Absorbance (Table 9, A549, 10 μM): 0.4606
- Percent Survival (Table 9, A549, 10 μM): 72.24%
- Average Absorbance (Table 9, A549, 20 μM): 0.3935
- Percent Survival (Table 9, A549, 20 μM): 61.71%
- Average Absorbance (Table 9, A549, 30 μM): 0.2016
- Percent Survival (Table 9, A549, 30 μM): 31.62%
- Average Absorbance (Table 9, A549, 40 μM): 0.08893
- Percent Survival (Table 9, A549, 40 μM): 13.95%
- Average Absorbance (Table 9, A549, 50 μM): 0.04983
- Percent Survival (Table 9, A549, 50 μM): 7.815%
- Average Absorbance (Table 9, A549, 60 μM): 0.06103
- Percent Survival (Table 9, A549, 60 μM): 9.571%
- Average Absorbance (Table 9, A549, 70 μM): 0.05103
- Percent Survival (Table 9, A549, 70 μM): 8.003%

Molecule: CC(C)(C(=O)O)C(O)(C(=O)O)C(C)(C)C(=O)[O][Pt]([NH2])([NH2])([Cl])([Cl])[N+](=O)[O-] (stereo not drawn) [CPA-31]
- Average Absorbance (Table 1, A549, 10 μM): 2.4274
- Percent Survival (Table 1, A549, 10 μM): 102.8080%
- Average Absorbance (Table 1, A549, 20 μM): 2.3495
- Percent Survival (Table 1, A549, 20 μM): 99.5087%
- Average Absorbance (Table 1, A549, 30 μM): 2.3778
- Percent Survival (Table 1, A549, 30 μM): 100.7073%
- IC50 (Table 2, A549, extrapolated from incomplete data (10-40 uM; CPA-31 10-30 μM), outside the measured range, read-out: Calculated IC 50 (uM concentration)): 506 µM
- Average Absorbance (Table 3, A549, 10 μM): 2.5294
- Percent Survival (Table 3, A549, 10 μM): 103.5409%
- Average Absorbance (Table 3, A549, 20 μM): 2.3875
- Percent Survival (Table 3, A549, 20 μM): 97.7322%
- Average Absorbance (Table 3, A549, 30 μM): 1.7978
- Percent Survival (Table 3, A549, 30 μM): 73.5929%
- Average Absorbance (Table 3, A549, 40 μM): 0.8196
- Percent Survival (Table 3, A549, 40 μM): 33.5503%
- Average Absorbance (Table 3, A549, 50 μM): 0.6049
- Percent Survival (Table 3, A549, 50 μM): 24.7616%
- Average Absorbance (Table 3, A549, 60 μM): 0.6067
- Percent Survival (Table 3, A549, 60 μM): 24.8352%
- Average Absorbance (Table 3, A549, 70 μM): 0.6228
- Percent Survival (Table 3, A549, 70 μM): 25.4943%

Molecule: Safranin
- Average Absorbance (Table 9, A549, 10 μM): 0.4933
- Percent Survival (Table 9, A549, 10 μM): 77.35%
- Average Absorbance (Table 9, A549, 20 μM): 0.4394
- Percent Survival (Table 9, A549, 20 μM): 68.9%
- Average Absorbance (Table 9, A549, 30 μM): 0.2197
- Percent Survival (Table 9, A549, 30 μM): 34.46%
- Average Absorbance (Table 9, A549, 40 μM): 0.07453
- Percent Survival (Table 9, A549, 40 μM): 11.69%
- Average Absorbance (Table 9, A549, 50 μM): 0.05293
- Percent Survival (Table 9, A549, 50 μM): 8.301%
- Average Absorbance (Table 9, A549, 60 μM): 0.0432
- Percent Survival (Table 9, A549, 60 μM): 6.775%
- Average Absorbance (Table 9, A549, 70 μM): 0.05447
- Percent Survival (Table 9, A549, 70 μM): 8.541%

Molecule: Cn1c(=O)c2[nH]cnc2n(C)c1=O [Theophylline]
- Average Absorbance (Table 9, A549, 10 μM): 0.5681
- Percent Survival (Table 9, A549, 10 μM): 89.1%
- Average Absorbance (Table 9, A549, 20 μM): 0.3864
- Percent Survival (Table 9, A549, 20 μM): 60.6%
- Average Absorbance (Table 9, A549, 30 μM): 0.2159
- Percent Survival (Table 9, A549, 30 μM): 33.86%
- Average Absorbance (Table 9, A549, 40 μM): 0.0585
- Percent Survival (Table 9, A549, 40 μM): 9.174%
- Average Absorbance (Table 9, A549, 50 μM): 0.0047
- Percent Survival (Table 9, A549, 50 μM): 0.7371%
- Average Absorbance (Table 9, A549, 60 μM): 0.03173
- Percent Survival (Table 9, A549, 60 μM): 4.976%
- Average Absorbance (Table 9, A549, 70 μM): −0.001567
- Percent Survival (Table 9, A549, 70 μM): −0.2457%

Molecule: Methylene blue
- Average Absorbance (Table 6, A549, 10 μM): 2.3750
- Percent Survival (Table 6, A549, 10 μM): 100.5887%
- Average Absorbance (Table 6, A549, 20 μM): 2.2927
- Percent Survival (Table 6, A549, 20 μM): 97.1030%
- Average Absorbance (Table 6, A549, 30 μM): 2.2510
- Percent Survival (Table 6, A549, 30 μM): 95.3369%
- Average Absorbance (Table 6, A549, 40 μM): 1.5702
- Percent Survival (Table 6, A549, 40 μM): 66.5029%
- Average Absorbance (Table 6, A549, 50 μM): 0.8542
- Percent Survival (Table 6, A549, 50 μM): 36.1781%
- Average Absorbance (Table 6, A549, 60 μM): 1.1911
- Percent Survival (Table 6, A549, 60 μM): 50.4468%
- Average Absorbance (Table 6, A549, 70 μM): 0.9505
- Percent Survival (Table 6, A549, 70 μM): 40.2567%
- IC50 (Table 7, A549, linear trend from percent survival vs. concentration data, read-out: Calculated IC 50 (uM concentration)): 56.4 µM
- Average Absorbance (Table 8, A549, 10 μM): 2.5299
- Percent Survival (Table 8, A549, 10 μM): 103.5613%
- Average Absorbance (Table 8, A549, 20 μM): 2.1653
- Percent Survival (Table 8, A549, 20 μM): 88.6365%
- Average Absorbance (Table 8, A549, 30 μM): 1.6536
- Percent Survival (Table 8, A549, 30 μM): 67.6900%
- Average Absorbance (Table 8, A549, 40 μM): 0.7522
- Percent Survival (Table 8, A549, 40 μM): 30.7913%
- Average Absorbance (Table 8, A549, 50 μM): 0.6302
- Percent Survival (Table 8, A549, 50 μM): 25.7972%
- Average Absorbance (Table 8, A549, 60 μM): 0.7701
- Percent Survival (Table 8, A549, 60 μM): 31.5240%
- Average Absorbance (Table 8, A549, 70 μM): 0.7481
- Percent Survival (Table 8, A549, 70 μM): 30.6234%

Molecule: NC(=O)c1ccc(N)nc1 [6-Aminonicotinamide]
- IC50 (Homo sapiens, A549, read-out: Calculated IC 50 (uM concentration)): 53.1 µM
- Average Absorbance (Table 6, A549, 10 μM): 2.3742
- Percent Survival (Table 6, A549, 10 μM): 100.5548%
- Average Absorbance (Table 6, A549, 20 μM): 2.4321
- Percent Survival (Table 6, A549, 20 μM): 103.0071%
- Average Absorbance (Table 6, A549, 30 μM): 2.2814
- Percent Survival (Table 6, A549, 30 μM): 96.6245%
- Average Absorbance (Table 6, A549, 40 μM): 1.7213
- Percent Survival (Table 6, A549, 40 μM): 72.9025%
- Average Absorbance (Table 6, A549, 50 μM): 0.8618
- Percent Survival (Table 6, A549, 50 μM): 36.4999%
- Average Absorbance (Table 6, A549, 60 μM): 0.7739
- Percent Survival (Table 6, A549, 60 μM): 32.7771%
- Average Absorbance (Table 6, A549, 70 μM): 0.8536
- Percent Survival (Table 6, A549, 70 μM): 36.1526%
- Average Absorbance (Table 8, A549, 10 μM): 2.4711
- Percent Survival (Table 8, A549, 10 μM): 101.1544%
- Average Absorbance (Table 8, A549, 20 μM): 2.4672
- Percent Survival (Table 8, A549, 20 μM): 100.9947%
- Average Absorbance (Table 8, A549, 30 μM): 1.9896
- Percent Survival (Table 8, A549, 30 μM): 81.4442%
- Average Absorbance (Table 8, A549, 40 μM): 1.0963
- Percent Survival (Table 8, A549, 40 μM): 44.8770%
- Average Absorbance (Table 8, A549, 50 μM): 0.6485
- Percent Survival (Table 8, A549, 50 μM): 26.5463%
- Average Absorbance (Table 8, A549, 60 μM): 0.5811
- Percent Survival (Table 8, A549, 60 μM): 23.7873%
- Average Absorbance (Table 8, A549, 70 μM): 0.6294
- Percent Survival (Table 8, A549, 70 μM): 25.7645%
